Here are results for one compound from patent publication US20100021989A1, “COMPOSITIONS AND METHODS OF CONTROLLING AND ADMINISTERING REDOX SPECIFIC FORMS OF DRUGS, FOODS AND DIETARY SUPPLEMENTS” (priority 2008, published 2010).

Where only a bound is given, the exact number is not on record here.

Data set [1] deals with VZV (varicella zoster virus). The experiment in a line: Antiviral drug screen of EGCG, VZV. In kind it is cell-based.
The next data set deals with HSV-2 (herpes simplex 2). The experiment in a line: Antiviral drug screen of EGCG, HSV-2. In kind it is cell-based.
The subject of another data set is HSV-2. The experiment in a line: HSV-2 inactivation: virus mixed with compound, infectivity titrated on CV1 cells (reduction of virus titer). It is filed as cell-based, herpes simplex virus 2. As to conditions: varying pH. The protocol:
Experimental—HSV-1 and 2: Herpes simplex viruses were titrated by inoculation of 10-fold dilutions (HSV-1 was inoculated into Vero cell cultures, and HSV-2 was inoculated into CV1 cultures) in 96-well microtiter tissue culture plates. A virus dilution (0.1 ml) in RPMI 1640 with 1% fetal bovine serum (MM) was inoculated into each well with three wells per dilution. The plates were kept for 2 to 5 days, depending on the virus, and examined daily for cytopathic effect. Virus titers were calculated by the method of Reed and Muench (1938).
About 10^5 50% tissue culture infective doses (TCID50s) of virus were mixed with varying concentrations (12.5, 25, 50, 75 and 100 μM) of reduced and oxidized EGCG in MM and incubated at 37° C. for 30 min. The following samples were tested: The reduced form of EGCG (#1); the partially oxidized form of EGCG (#2); the quinone or fully oxidized form of EGCG with the addition of a copper catalyst (#3); and quinone or fully oxidized form of EGCG with the addition of a zinc catalyst (#4). In Samples #3 and #4, the addition of the copper and zinc catalysts, respectively, raised the pH to 9.0-9.5. These compounds were totally oxidized, thereby taking a quinone form. […]
Virus mixed with MM alone was used as a control. […] The 10^−1 to 10^−5 dilutions were inoculated into monolayers of Vero or CV1 cells, and the virus titers were determined as described above. […]

Data set [2] is classed as physicochemical. The text has this: UV-Visible Absorption Spectra vs. pH: EGCG solutions undergo an immediate spectral absorption shift as the pH increases from acidic to alkaline, with a change noted at pH 7 when a peak at 320 nm appears and the dominant phenol peak at 272 nm begins to decrease (FIG. 3A). The 320 nm peak likely represents the absorbance of the quinone form of EGCG. […] However, if the alkaline solution is re-acidified within minutes, the reaction is reversible. […] EPR vs. pH study of EGCG: The EPR and UV-visible spectra of EGCG, stabilized with 0.2 M MgCl2, were measured as a function of pH (i.e., 6.03, 6.54, 7.03, 7.57, 8.09, 8.56, 9.10, 9.56). A corresponding increase in a peak at ˜314 nm and a g=2 EPR spectrum occurred with increasing pH. […] This is in agreement with the known stabilizing effect on semiquinone free radicals by divalent cations like Mg^+2. […] The multiple peaks and valleys in FIGS. 5a and 5b are the fine structure detail of a high concentration radical solution. EPR detects unpaired spinning electrons due to the absorption of microwaves in an applied magnetic field. The peak splitting is due to interaction of the lone electron's spin magnetic field with environmental magnetic fields. […]

The test system of data set [3] is multidrug-resistant strain (33591) of Staphylococcus aureus. The experiment in a line: Antibacterial assay, pre-incubation then colony-forming units counted. It is filed as cell-based. The settings on record: for Killing of bacteria (cfu): 0.08% EGCG. As for the experimental part:
Antibacterial activity: EGCG was tested as an antibacterial agent against a multidrug-resistant strain (33591) of Staphylococcus aureus. After pre-incubating the cells with various concentrations of EGCG at pH 6, 7.5, and 8.5, cells were plated and colony-forming units (cfu) were counted as a measure of efficacy (FIG. 12).

As to `O=C(O[C@@H]1Cc2c(O)cc(O)cc2O[C@@H]1c1cc(O)c(O)c(O)c1)c1cc(O)c(O)c(O)c1` [EGCG, (−)-Epigallocatechingallate], the results for the EC-50 (in data set [1] (VZV); in the data set on HSV-2 (herpes simplex 2) (HSV-2)) were 4.1 µg/mL and 7.6 µg/mL, respectively. Also, the EC-90 was greater than 40 µg/mL in data set [1] (VZV) and 98.6 µg/mL in the data set with HSV-2 (herpes simplex 2) (HSV-2). Also, the results for the CC-50 (in data set [1] (cytotoxicity in VZV screen); with HSV-2 (herpes simplex 2) (cytotoxicity in HSV-2 screen)) were greater than 40 µg/mL and 857 µg/mL, respectively. Also, the “Effect of pH on activity against HSV-2 (FIG. 9)” value in the data set on HSV-2 is given as “greater antiviral activity at the more alkaline pH's”. For the same compound, the “Stability of 320 nm oxidation peak” value in data set [2] is “disappears within hours”. In data set [2] (after basification, 0.2 M MgCl2, no electrochemical modulation), the “Decay time of semiquinone EPR signal” value was 30 min. The “Killing of bacteria (cfu)” value in data set [3] (pH 7.5) and in data set [3] (pH 8.5) was “effective at killing nearly all the bacteria” each time. Further, the “Bactericidal effect (cfu)” value in data set [3] (0.4-0.8% EGCG, pH 6, 7.5 and 8.5) is “strongly bactericidal”. Besides, in data set [3] (concentrations higher than 0.4-0.8% EGCG), the “Effectiveness (cfu)” value was “less effective”.
